Holding throughout (test): Kirby-Bauer agar disk diffusion
For orientation: A growth-free zone around the sample is the usual read-out of agar diffusion tests.

In one experiment the test system is MRSA USF652. The format is cell-based, Staphylococcus aureus. As to conditions: Table 1; 6-mm disks, 20 μg test compound, 24 h, triplicate. A digest of the protocol: (§1)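 Read-out is the mean diameter (mm, n=3) of the zone without bacterial growth 24 h after applying a 6-mm disk carrying 20 μg of compound to an agar plate of β-lactamase-producing MRSA.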
Another experiment relates to MRSA USF653. The format is cell-based, Staphylococcus aureus. Conditions: Table 1; 6-mm disks, 20 μg test compound, 24 h, triplicate. A digest of the protocol: as §1
In a further experiment the test system is MRSA USF654. In kind it is cell-based, Staphylococcus aureus. Conditions: Table 1; 6-mm disks, 20 μg test compound, 24 h, triplicate. In a few lines: as §1
Another experiment deals with MRSA USF655. The format is cell-based, Staphylococcus aureus. As to conditions: Table 1; 6-mm disks, 20 μg test compound, 24 h, triplicate. In a few lines:
as §1

A further experiment deals with MRSA USF656. The format is cell-based, Staphylococcus aureus. Conditions: Table 1; 6-mm disks, 20 μg test compound, 24 h, triplicate. A digest of the protocol: as §1
A further experiment relates to MRSA USF657. The format is cell-based, Staphylococcus aureus. Conditions: Table 1; 6-mm disks, 20 μg test compound, 24 h, triplicate. A digest of the protocol:
as §1

A further experiment concerns MRSA USF658. The format is cell-based, Staphylococcus aureus. As to conditions: Table 1; 6-mm disks, 20 μg test compound, 24 h, triplicate. A digest of the protocol: as §1
In the next experiment the test system is MRSA USF659. The format is cell-based, Staphylococcus aureus. As to conditions: Table 1; 6-mm disks, 20 μg test compound, 24 h, triplicate. In a few lines: as §1
The next experiment has as its system Micrococcus luteus. The format is cell-based. As to conditions: Table 1; 6-mm disks, 20 μg test compound, 24 h, triplicate. As for the experimental part:
(§2) In this study, a selection of N-methylthio-substituted β-lactams are examined for antimicrobial activity by the Kirby-Bauer disk diffusion method on agar plates. A variety of common Gram-positive and Gram-negative bacteria are tested, including clinical isolates of methicillin-resistant Staphylococcus aureus (MRSA).
(§3) Compound susceptibility measurements are obtained from agar disk diffusion experiments using 6-mm air-dried disks impregnated with 20 μg of the test compound. The values correspond to the average diameters in mm (triplicate experiments) for the zone of growth inhibition observed after 24 h. Staphylococcus aureus (ATCC 25923) and β-lactamase-producing strains of methicillin-resistant Staphylococcus aureus (labeled as MRSA USF652-659) are obtained from Lakeland Regional Medical Center, Lakeland, Fla. Staphylococcus epidermidis, Staphylococcus simulans, Staphylococcus simulans, and Microcossus luteus are clinical isolates from University of South Florida Medical Clinic. Nieserria gonnorhoeae (β-lactamase positive) is obtained from the Tampa Branch State Laboratory. PenG is penicillin G (potassium salt). Table 1 provides the zones of growth inhibition that are observed after 24 hours using the lactams of FIGS. 1A-1I (designated A-I, respectively).
(§4) Of particular interest is the ability of these compounds to retain their effectiveness against penicillin-resistant strains of Staphylococcus aureus, a dangerous hospital-borne pathogen which is becoming difficult to treat with conventional antibiotic therapy. The lactams were screened for antibacterial activity by disk diffusion on agar plates, and the resulting zones of bacterial growth inhibition measured (see Table 3; each lactam is designated by Figure number).
(§5) Table 3: Growth inhibition zones obtained from agar disk diffusion experiments using 6-mm air-dried disks impregnated with 20 μg of the test compound. The values correspond to the average diameters in mm for the zone of growth inhibition observed after 24 hours. Staphylococcus aureus and β-lactamase-producing strains of methicillin-resistant Staphylococcus aureus (labeled MRSA USF652-659) are obtained from a clinical testing laboratory at Lakeland Regional Medical Center, Lakeland, Fla.

Experiment [1] relates to Staphylococcus aureus (ATCC 25923). In kind it is cell-based. Conditions: Table 1; 6-mm disks, 20 μg test compound, 24 h, triplicate. As for the experimental part:
as §2, §3, §4, §5

Experiment [2] relates to Staphylococcus epidermidis. The format is cell-based. Conditions: Table 1; 6-mm disks, 20 μg test compound, 24 h, triplicate. As for the experimental part:
as §2, §3, §4, §5

The test system of a further experiment is S. simulans (ATCC 11631). The format is cell-based, Staphylococcus simulans. As to conditions: Table 1; 6-mm disks, 20 μg test compound, 24 h, triplicate. As for the experimental part:
as §2, §3, §4, §5

The test system of experiment [3] is S. saprophyticus (ATCC 3552). In kind it is cell-based, Staphylococcus saprophyticus. As to conditions: Table 1; 6-mm disks, 20 μg test compound, 24 h, triplicate. As for the experimental part: as §2, §3, §4, §5
The subject of the next experiment is N. gonorrhoeae. The format is cell-based, Neisseria gonorrhoeae. As to conditions: Table 1; 6-mm disks, 20 μg test compound, 24 h, triplicate; β-lactamase positive. As for the experimental part:
as §2, §3

Regarding `COC1C(=O)N(SC)C1C=Cc1ccccc1` (racemic) [Lactam B], the “zone of growth inhibition, average diameter” value (“zone of growth inhibition” for short) in the experiment with MRSA USF652 is given as 19 mm; in the experiment on MRSA USF653, 23 mm; in the experiment with MRSA USF654, 16 mm; in the experiment with MRSA USF655, 17 mm; in the experiment on MRSA USF656, 19 mm; in the experiment with MRSA USF657, 17 mm. The “zone of growth inhibition” value in the experiment on MRSA USF658 is listed as 16 mm; in the experiment with MRSA USF659, 15 mm; in the experiment on Micrococcus luteus, 20 mm; in [1], 18 mm; in experiment [2], 23 mm; in the experiment on S. simulans (ATCC 11631), 11 mm. Also, the entries for the “zone of growth inhibition” value (in experiment [3]; in the experiment with N. gonorrhoeae) were 12 mm and 11 mm, respectively.

In the case of `COC1C(=O)N(SC)C1c1ccccc1` (racemic) [Lactam C], the “zone of growth inhibition” value came to 30 mm with MRSA USF652; 30 mm with MRSA USF653; 26 mm with MRSA USF654; 25 mm in the experiment with MRSA USF655; 28 mm with MRSA USF656; 27 mm in the experiment with MRSA USF657. Besides, the “zone of growth inhibition” value with MRSA USF658 is listed as 26 mm; with MRSA USF659, 24 mm; in the experiment on Micrococcus luteus it was 21 mm; in [1], 25 mm; in [2], 31 mm; with S. simulans (ATCC 11631) it was 14 mm. In addition, the “zone of growth inhibition” value in [3] stood at 22 mm; in the experiment with N. gonorrhoeae it was 14 mm.

`COC1C(=O)N(SC)C1c1cccc([N+](=O)[O-])c1` (racemic) [Lactam E]: the “zone of growth inhibition” value in the experiment on MRSA USF652 is 17 mm; in the experiment with MRSA USF653, 22 mm; in the experiment with MRSA USF654, 16 mm; with MRSA USF655 it was 14 mm; with MRSA USF656, 18 mm; in the experiment with MRSA USF657, 18 mm. For the same compound, the “zone of growth inhibition” value was 17 mm in the experiment on MRSA USF658; 11 mm with MRSA USF659; 22 mm in the experiment on Micrococcus luteus; 15 mm in experiment [1]; 20 mm in experiment [2]; 13 mm in the experiment with S. simulans (ATCC 11631). For the same compound, the entries for the “zone of growth inhibition” value (in [3]; in the experiment on N. gonorrhoeae) were 15 mm and 12 mm, respectively.

As for `COC(=O)c1ccc(C2C(OC)C(=O)N2SC)cc1` (racemic) [Lactam F], the “zone of growth inhibition” value came to 12 mm in the experiment on MRSA USF652; 14 mm in the experiment on MRSA USF653; 12 mm in the experiment on MRSA USF654; 14 mm in the experiment with MRSA USF655; 11 mm in the experiment on MRSA USF656; 12 mm in the experiment on MRSA USF657. Further, the “zone of growth inhibition” value in the experiment on MRSA USF658 came out at 12 mm; with MRSA USF659 it was 13 mm; with Micrococcus luteus, 20 mm; in experiment [1], 12 mm; in experiment [2], 12 mm; in the experiment on S. simulans (ATCC 11631), 0 mm. Besides, the figures for the “zone of growth inhibition” value (in experiment [3]; in the experiment on N. gonorrhoeae) were 8 mm and 11 mm, respectively.

For the compound `COC1C(=O)N(SC)C1c1ccc(C#N)cc1` (racemic) [Lactam G], the “zone of growth inhibition” value with MRSA USF652 is 14 mm; in the experiment on MRSA USF653, 16 mm; in the experiment on MRSA USF654, 12 mm; in the experiment on MRSA USF655, 12 mm; with MRSA USF656, 13 mm; in the experiment with MRSA USF657 it was 10 mm. For the same compound, the “zone of growth inhibition” value with MRSA USF658 stood at 12 mm; in the experiment on MRSA USF659, 12 mm; in the experiment on Micrococcus luteus it was 21 mm; in experiment [1], 14 mm; in experiment [2] it was 20 mm; in the experiment on S. simulans (ATCC 11631) it was 0 mm. For the same compound, the “zone of growth inhibition” value was 14 mm in experiment [3] and 12 mm in the experiment with N. gonorrhoeae.

As for `COC1C(=O)N(SC)C1c1ccccc1C` (racemic) [Lactam H], the “zone of growth inhibition” value in the experiment on MRSA USF652 was 23 mm; in the experiment on MRSA USF653 it was 27 mm; in the experiment with MRSA USF654, 23 mm; in the experiment on MRSA USF655, 23 mm; in the experiment with MRSA USF656, 25 mm; with MRSA USF657, 23 mm. For the same compound, the “zone of growth inhibition” value was 22 mm with MRSA USF658; 20 mm in the experiment with MRSA USF659; 21 mm with Micrococcus luteus; 23 mm in experiment [1]; 25 mm in experiment [2]; 14 mm in the experiment with S. simulans (ATCC 11631). In addition, the “zone of growth inhibition” value in experiment [3] came to 15 mm; in the experiment with N. gonorrhoeae, 12 mm.

With `COC1C(=O)N(SC)C1c1cccs1` (racemic) [Lactam I], the “zone of growth inhibition” value with MRSA USF652 stood at 28 mm; in the experiment on MRSA USF653, 28 mm; with MRSA USF654, 27 mm; with MRSA USF655 it was 29 mm; in the experiment on MRSA USF656, 28 mm; in the experiment on MRSA USF657, 26 mm. For the same compound, the “zone of growth inhibition” value came to 26 mm in the experiment on MRSA USF658; 24 mm in the experiment with MRSA USF659; 15 mm with Micrococcus luteus; 27 mm in experiment [1]; 28 mm in experiment [2]; 0 mm with S. simulans (ATCC 11631). The results for the “zone of growth inhibition” value (in experiment [3]; in the experiment on N. gonorrhoeae) were 20 mm and 11 mm, respectively.

These data come from patent publication US6946458B2, “N-thiolated beta-lactams: novel antibacterial agents for methicillin-resistant Staphylococcus aureus” (University of South Florida, priority 1999, dated 2005).
